Series [1] concerns ulcerative proctosigmoiditis. It is filed as in vivo, patients. As for the experimental part:
For patients maintained on SAZ (1 g b.i.d.) this treatment was kept unchanged throughout the trial. No other drugs were given.
(§1) The study was carried out as a block-randomized, double-blind trial. Before entry, clinical disease activity was assessed, and equilibrium in vivo dialysis of rectum was performed before the assessment of endoscopic and histologic disease activity. […] Primary stratification was done for patients already on maintenance treatment with SAZ. At day 15 the equilibrium in vivo dialysis of rectum was repeated, and clinical, endoscopic, and histologic activities were reassessed. Patients in complete clinical and endoscopic remission discontinued treatment with enemas, whereas the remainder continued therapy for another 14 days. In all cases equilibrium in vivo dialysis of rectum and assessment of disease activity were repeated at day 29. Withdrawal criteria included intolerance to treatment or deterioration (severe disease, C3) requiring systemic glucocorticoids.
The clinical activity was based on a diary in which the number of bowel movements and the presence or absence of blood were registered by the patient and the objective findings were registered by the investigator. To minimize variation among observers each patient was examined on all study days by the same investigator, who was unaware of the results of the rectal dialyses.

A further series concerns PGE2. Briefly: Equilibrium in vivo dialysis of rectum with radioimmunoassay of PGE2 (enema trial). On the set-up: species or system patients. The conditions noted are these: for Concentrations of PGE2 in rectal lumen: median, enema groups irrespective of SAZ (+/-), SAZ line = no enema, with SAZ maintenance; for effect of treatment with enemas on PGE2 concentrations in the rectal lumen: whole group, active UC, 2-4 weeks, 5-ASA p>0.5, prednisolone p<0.05 (Wilcoxon). As for the experimental part: as §1
In vivo dialysis of rectum was performed after insertion of a 12-cm-long dialysis bag (volume 4 ml; Visking seamless cellulose tubing 8/32 filled with Rheomacrodex@; Pharmacia, Uppsala, Sweden) containing 10% dextran (mean mol wt 40,000) in saline into the emptied rectum. To obtain equilibrium with the fluid covering the surface of rectal mucosa, the dialysis bag was left for 4 h before its contents were emptied into a test tube, which was stored immediately at -20°C (rectal dialysate) for analysis within 2 wk.
Prostaglandin E2 was measured as previously described in detail (K. Bukhave, J. Rask-Madsen J, 'Prostaglandin E2 in jejunal fluids and its potential diagnostic value for selecting patients with indomethacin-sensitive diarrhoea', 1981 European Journal of Clinical Investigation, 11:191-7) by a radioimmunologic method validated by gas chromatography-mass spectrometry (K. Bukhave, K Green, J. Rask-Madsen, 'Comparison of radioimmunological determinations with gas chromatography mass spectrometry dosage', 1983 Biomedical Mass Spectrometry, 10:265-8). The method included purification by extraction with ethylacetate/cyclo- hexane (1:1) and chromatography on microcolumns of Sephadex LH-20 (Pharmacia AB, Sweden) before performing the radioimmunoassay itself on the eluate fraction containing PGE2.

Where [2] appears, read: number of patients, enemas once daily 2-4 wk, 5-ASA n=13, prednisolone n=11.
[3] abbreviates: number of these patients on additional SAZ maintenance (figure in brackets).
Setting [4] is: clinical activity 2-3 (moderate-severe).
The mark [5] stands for this setting: endoscopic activity 0 (inactive).
Setting [6] is: endoscopic activity 2 (moderate).

Regarding `Nc1ccc(O)c(C(=O)O)c1` [5-ASA, 5-amino-salicylic acid], the “difficulties in retaining the enemas” value in series [1] (human, in vivo) was determined as 2. The “Outcome of treatment: Unchanged or worse” value in series [1] (setting [2]) turned out to be 6. For the same molecule, in series [1] (setting [3]), the “Outcome of treatment: Unchanged or worse (on sulfasalazine)” value stood at 3. The “Concentrations of PGE2 in rectal lumen” value is 0.71(n=7) (0.18-6.0) ng/ml with PGE2 (clinical activity 0 (inactive)); 24(n=5) (2.5-58) ng/ml in the series with PGE2 (clinical activity 1 (mild)); 33(n=8) (14-120) ng/ml in the series on PGE2 (setting [4]); 0.75(n=3) (0.18-3.7) ng/ml with PGE2 (setting [5]); 5.5(n=4) (0.29-6.2) ng/ml with PGE2 (endoscopic activity 1 (mild)); 24(n=8) (2.5-58) ng/ml in the series on PGE2 (setting [6]). The “Concentrations of PGE2 in rectal lumen” value in the series with PGE2 (endoscopic activity 3 (severe)) was 31(n=5) (20-120) ng/ml. Moreover, in the series with PGE2 (only those patients responding to treatment), the “PGE2 levels in the rectal lumen” value is “decreased toward control levels”. In addition, the “effect of treatment with enemas on PGE2 concentrations in the rectal lumen” value in the series with PGE2 is recorded as “No significant effects”.

On to `C[C@]12C=CC(=O)C=C1CC[C@@H]1[C@@H]2[C@@H](O)C[C@@]2(C)[C@H]1CC[C@]2(O)C(=O)CO` [Prednisolone, prednisolone], for which the “Outcome of treatment: Clinical and endoscopic remission” value in series [1] (number of patients, enemas once daily 2-4 wk, 5-ASA 1000 mg (n=13), prednisolone 25 mg (n=11)) was determined as 8. The “Outcome of treatment: Clinical but not endoscopic remission” value in series [1] (setting [2]) is 1 (1). Moreover, the “Outcome of treatment: Unchanged or worse” value in series [1] (setting [2]) is given as 2 (2). The “Outcome of treatment: Clinical and endoscopic remission (on SAZ)” value in series [1] (number of these patients on additional SAZ maintenance 2 g/day (figure in brackets)) was determined as 3. Also, the “Outcome of treatment: Clinical but not endoscopic remission (on SAZ)” value in series [1] (setting [3]) was 1 (1). Moreover, the “Outcome of treatment: Unchanged or worse (on sulfasalazine)” value in series [1] (setting [3]) was 2 (2). Besides, the “Concentrations of PGE2 in rectal lumen” value in the series with PGE2 (clinical activity 0 (inactive)) is recorded as 1.6(n=9) (0.16-5.0) ng/ml; in the series on PGE2 (clinical activity 1 (mild)), 5.4(n=6) (0.58-42) ng/ml; in the series with PGE2 (setting [4]), 9.5(n=3) (5.9-12) ng/ml; with PGE2 (setting [5]), 0.82(n=8) (0.16-5.0) ng/ml; in the series on PGE2 (endoscopic activity 1 (mild)), 2.8(n=7) (0.57-3.9) ng/ml; with PGE2 (setting [6]) it was 10.5(n=3) (5.5-42) ng/ml. In addition, in the series on PGE2, the “effect of treatment with enemas on PGE2 concentrations in the rectal lumen” value was “inhibited PGE2 concentrations significantly”.

Values taken from patent EP0393104B1, “MEASUREMENT OF PGE 2 (PROSTAGLANDIN E 2) LEVELS IN PATIENTS WITH CHRONIC INFLAMMATORY BOWEL DISEASE” (priority 1987, dated 1989).
